Literature values in US9913840B2, “Formulations for aripiprazole delivery transdermally” (Corium International, Inc., priority 2015, dated 2018).

Conditions: at room temperature

aqueous solubility: less than 1 μg/mL
Structure (SMILES): O=C1CCc2ccc(OCCCCN3CCN(c4cccc(Cl)c4Cl)CC3)cc2N1 [Aripiprazole]
